Assay results published in article PMC5218480 (PLoS ONE, 2017).

System: MV-4-11 cells
Experiment: Gene expression microarray analysis (Affymetrix PrimeView) and GSEA
Format: cell-based, human
Set-up: RFU PODN (11730768_x_at) / Fold change /veh PODN (11730768_x_at) / RFU LINC00158 (11744669_a_at) / Fold change /veh LINC00158 (11744669_a_at) / RFU DUSP10 (11751237_a_at) / Fold change /veh DUSP10 (11751237_a_at) / RFU ID3 (11757404_x_at) / Fold change /veh ID3 (11757404_x_at) / RFU PLEKHG5 (11737974_s_at) / Fold change /veh PLEKHG5 (11737974_s_at) / RFU LRRC4B (11730491_at) / Fold change /veh LRRC4B (11730491_at) / RFU GIMAP4 (11747438_a_at) / Fold change /veh GIMAP4 (11747438_a_at) / RFU KRT8 (11758183_x_at) / Fold change /veh KRT8 (11758183_x_at) / RFU CNN1 (11734310_a_at) / Fold change /veh CNN1 (11734310_a_at) / RFU VPS37D (11726825_at) / Fold change /veh VPS37D (11726825_at) / RFU C10orf10 (11716522_x_at) / Fold change /veh C10orf10 (11716522_x_at) / RFU KIR2DL2 /// KIR2DL4 /// KIR2DL5A /// KIR2DL5B /// KIR2DS1 /// KIR2DS2 /// KIR2DS3 /// KIR2DS4 /// KIR3DL3 /// KIR3DL3 /// KIR3DS1 (11738374_at) / Fold change /veh KIR2DL2 /// KIR2DL4 /// KIR2DL5A /// KIR2DL5B /// KIR2DS1 /// KIR2DS2 /// KIR2DS3 /// KIR2DS4 /// KIR3DL3 /// KIR3DL3 /// KIR3DS1 (11738374_at) / RFU C1QL1 (11718748_at) / Fold change /veh C1QL1 (11718748_at) / RFU TMPRSS4 (11747572_a_at) / Fold change /veh TMPRSS4 (11747572_a_at) / RFU HAMP (11756126_x_at) / Fold change /veh HAMP (11756126_x_at) / RFU RNFT2 (11725882_a_at) / Fold change /veh RNFT2 (11725882_a_at) / RFU NR4A2 (11747474_a_at) / Fold change /veh NR4A2 (11747474_a_at) / RFU ABCC12 (11746883_a_at) / Fold change /veh ABCC12 (11746883_a_at) / RFU TMEM136 (11760407_x_at) / Fold change /veh TMEM136 (11760407_x_at) / RFU CLDN22 /// WWC2 (11732394_at) / Fold change /veh CLDN22 /// WWC2 (11732394_at) / RFU HLA-DPB1 (11760878_x_at) / Fold change /veh HLA-DPB1 (11760878_x_at) / RFU SPINT1 (11716480_a_at) / Fold change /veh SPINT1 (11716480_a_at) / RFU GAP43 (11754022_s_at) / Fold change /veh GAP43 (11754022_s_at) / RFU A4GNT (11735810_at) / Fold change /veh A4GNT (11735810_at) / RFU PRB3 (11715151_x_at) / Fold change /veh PRB3 (11715151_x_at) / RFU TUBB4B (11761932_at) / Fold change /veh TUBB4B (11761932_at) / RFU CAPN14 (11732068_a_at) / Fold change /veh CAPN14 (11732068_a_at) / RFU TMCC2 (11721928_a_at) / Fold change /veh TMCC2 (11721928_a_at) / RFU IRGQ (11745062_a_at) / Fold change /veh IRGQ (11745062_a_at) / RFU FAM174B (11720279_a_at) / Fold change /veh FAM174B (11720279_a_at) / RFU TMPRSS4 (11748680_a_at) / Fold change /veh TMPRSS4 (11748680_a_at) / RFU FAM212B (11763350_a_at) / Fold change /veh FAM212B (11763350_a_at) / RFU PLEKHG5 (11743358_a_at) / Fold change /veh PLEKHG5 (11743358_a_at) / RFU ZSCAN30 (11745921_a_at) / Fold change /veh ZSCAN30 (11745921_a_at) / RFU CMKLR1 (11741424_a_at) / Fold change /veh CMKLR1 (11741424_a_at) / RFU LOC101060620 /// MAPK8IP1 (11723275_at) / Fold change /veh LOC101060620 /// MAPK8IP1 (11723275_at) / RFU SPTSSB (11747773_x_at) / Fold change /veh SPTSSB (11747773_x_at) / RFU PRSS12 (11739890_at) / Fold change /veh PRSS12 (11739890_at) / RFU BIN1 (11741810_x_at) / Fold change /veh BIN1 (11741810_x_at) / RFU WNT11 (11732464_a_at) / Fold change /veh WNT11 (11732464_a_at) / RFU C10orf10 (11716521_a_at) / Fold change /veh C10orf10 (11716521_a_at) / RFU C5orf56 (11738089_at) / Fold change /veh C5orf56 (11738089_at) / RFU CYB561 (11721691_x_at) / Fold change /veh CYB561 (11721691_x_at) / RFU ANKRD19P (11752326_a_at) / Fold change /veh ANKRD19P (11752326_a_at) / RFU OR2T12 /// OR2T33 /// OR2T8 (11738714_s_at) / Fold change /veh OR2T12 /// OR2T33 /// OR2T8 (11738714_s_at) / RFU VCAN (11748164_a_at) / Fold change /veh VCAN (11748164_a_at) / RFU JSRP1 (11732532_at) / Fold change /veh JSRP1 (11732532_at) / RFU KRTAP10-11 (11738290_x_at) / Fold change /veh KRTAP10-11 (11738290_x_at) / RFU MYO3A (11730013_a_at) / Fold change /veh MYO3A (11730013_a_at) / RFU EBF3 (11725865_a_at) / Fold change /veh EBF3 (11725865_a_at) / RFU CAMK2N1 (11719241_x_at) / Fold change /veh CAMK2N1 (11719241_x_at) / RFU C5orf56 (11738088_a_at) / Fold change /veh C5orf56 (11738088_a_at) / RFU OLFML3 (11715873_a_at) / Fold change /veh OLFML3 (11715873_a_at) / RFU LOC100653217 /// NTM (11731650_a_at) / Fold change /veh LOC100653217 /// NTM (11731650_a_at) / RFU MAPK11 (11762145_a_at) / Fold change /veh MAPK11 (11762145_a_at) / RFU FIZ1 (11724087_x_at) / Fold change /veh FIZ1 (11724087_x_at) / RFU OASL (11726364_x_at) / Fold change /veh OASL (11726364_x_at) / RFU SOX15 (11748057_x_at) / Fold change /veh SOX15 (11748057_x_at) / RFU CD79A (11719716_a_at) / Fold change /veh CD79A (11719716_a_at) / RFU HIST1H1D (11736915_at) / Fold change /veh HIST1H1D (11736915_at) / RFU CASKIN2 (11723855_a_at) / Fold change /veh CASKIN2 (11723855_a_at) / RFU LOC730098 (11760151_x_at) / Fold change /veh LOC730098 (11760151_x_at) / RFU OR4N2 (11742367_at) / Fold change /veh OR4N2 (11742367_at) / RFU PRRT2 (11749266_a_at) / Fold change /veh PRRT2 (11749266_a_at) / RFU SNX32 (11753110_a_at) / Fold change /veh SNX32 (11753110_a_at) / RFU CDHR5 (11726645_a_at) / Fold change /veh CDHR5 (11726645_a_at) / RFU RCAN1 (11760418_a_at) / Fold change /veh RCAN1 (11760418_a_at) / RFU FAM167A (11723789_a_at) / Fold change /veh FAM167A (11723789_a_at) / RFU FAM26E (11764081_at) / Fold change /veh FAM26E (11764081_at) / RFU ISYNA1 (11749810_s_at) / Fold change /veh ISYNA1 (11749810_s_at) / RFU ACY1 (11761880_at) / Fold change /veh ACY1 (11761880_at) / RFU 11764098_at / Fold change /veh 11764098_at / RFU SAMD14 (11745864_x_at) / Fold change /veh SAMD14 (11745864_x_at) / RFU NPB (11741838_a_at) / Fold change /veh NPB (11741838_a_at) / RFU TMPRSS6 (11731388_a_at) / Fold change /veh TMPRSS6 (11731388_a_at) / RFU KRTAP10-2 (11738614_at) / Fold change /veh KRTAP10-2 (11738614_at) / RFU ARHGAP8 /// PRR5-ARHGAP8 (11727945_x_at) / Fold change /veh ARHGAP8 /// PRR5-ARHGAP8 (11727945_x_at) / RFU KRTAP5-7 /// NADSYN1 (11734609_at) / Fold change /veh KRTAP5-7 /// NADSYN1 (11734609_at) / RFU RASL12 (11751679_a_at) / Fold change /veh RASL12 (11751679_a_at) / RFU CDKN2B (11736163_a_at) / Fold change /veh CDKN2B (11736163_a_at) / RFU PRF1 (11729649_at) / Fold change /veh PRF1 (11729649_at) / RFU, ZNF638 /// ZNF638-IT1 / Fold change vs veh, ZNF638 /// ZNF638-IT1 / RFU, PANK3 / Fold change vs veh, PANK3 / RFU, SH3YL1 / Fold change vs veh, SH3YL1 / RFU, ZEB2 / Fold change vs veh, ZEB2 / RFU, NRIP1 / Fold change vs veh, NRIP1 / RFU, PTTG1IP / Fold change vs veh, PTTG1IP / RFU, CAPN2 / Fold change vs veh, CAPN2 / RFU, MED14 / Fold change vs veh, MED14 / RFU, SNORA58 / Fold change vs veh, SNORA58 / RFU, C1orf63 / Fold change vs veh, C1orf63 / RFU, LRRFIP1 / Fold change vs veh, LRRFIP1 / RFU, NDUFAF7 / Fold change vs veh, NDUFAF7 / RFU, SLC12A2 / Fold change vs veh, SLC12A2 / RFU, IBTK / Fold change vs veh, IBTK / RFU, ESF1 / Fold change vs veh, ESF1 / Fold change vs veh, TMEM50B / RFU, TAOK1 / Fold change vs veh, TAOK1 / RFU, ACBD3 / Fold change vs veh, ACBD3 / RFU, TMA16 / Fold change vs veh, TMA16 / RFU, RWDD3 / Fold change vs veh, RWDD3 / RFU, BCAT1 / Fold change vs veh, BCAT1 / RFU, EDEM3 / Fold change vs veh, EDEM3 / RFU, TMEM33 / Fold change vs veh, TMEM33 / RFU, WDR75 / Fold change vs veh, WDR75 / RFU, AHCTF1 / Fold change vs veh, AHCTF1 / RFU, TFRC / Fold change vs veh, TFRC / RFU, ZDHHC17 / Fold change vs veh, ZDHHC17 / RFU, NOM1 / Fold change vs veh, NOM1 / RFU, ARL8B / Fold change vs veh, ARL8B / RFU, ZBTB11 / Fold change vs veh, ZBTB11 / RFU, TAMM41 / Fold change vs veh, TAMM41 / RFU, KIAA1704 /// LOC100996395 / Fold change vs veh, KIAA1704 /// LOC100996395 / RFU, ING1 / Fold change vs veh, ING1 / RFU, TRMT61B / Fold change vs veh, TRMT61B / RFU, FUBP3 / Fold change vs veh, FUBP3 / RFU, TP53 / Fold change vs veh, TP53 / RFU, TNKS2 / Fold change vs veh, TNKS2 / RFU, ZFP14 / Fold change vs veh, ZFP14 / RFU, ACTR2 / Fold change vs veh, ACTR2 / RFU, PPP3R1 / Fold change vs veh, PPP3R1 / RFU, PIK3R1 / Fold change vs veh, PIK3R1 / RFU, HNRNPA1 / Fold change vs veh, HNRNPA1 / RFU, RNF170 / Fold change vs veh, RNF170 / RFU, ZNF28 / Fold change vs veh, ZNF28 / RFU, RNGTT / Fold change vs veh, RNGTT / RFU, OGT / Fold change vs veh, OGT / RFU, BRD1 / Fold change vs veh, BRD1 / RFU, MARS / Fold change vs veh, MARS / RFU, ZNF655 / Fold change vs veh, ZNF655 / RFU, FAHD1 / Fold change vs veh, FAHD1 / RFU, BDP1 / Fold change vs veh, BDP1 / RFU, LRRCC1 / Fold change vs veh, LRRCC1 / RFU, ARID1A / Fold change vs veh, ARID1A / RFU, ZNF146 / Fold change vs veh, ZNF146 / RFU, ZNF330 / Fold change vs veh, ZNF330 / RFU, GPN3 / Fold change vs veh, GPN3 / RFU, C9orf123 / Fold change vs veh, C9orf123 / RFU, N4BP2L2 / Fold change vs veh, N4BP2L2 / RFU, ARFIP1 / Fold change vs veh, ARFIP1 / RFU, FAM179B / Fold change vs veh, FAM179B / RFU, BCL10 / Fold change vs veh, BCL10 / RFU, UHRF1BP1L / Fold change vs veh, UHRF1BP1L / RFU, BET1 / Fold change vs veh, BET1 / RFU, CNOT2 / Fold change vs veh, CNOT2 / RFU, ZNF268 / Fold change vs veh, ZNF268 / Fold change vs veh, ZNF507 / RFU, DGCR2 / Fold change vs veh, DGCR2 / RFU, WDSUB1 / Fold change vs veh, WDSUB1 / Fold change vs veh, HSP90B1 /// MIR3652 / RFU, ADSS / Fold change vs veh, ADSS / RFU, GK / Fold change vs veh, GK / RFU, ZNF148 / Fold change vs veh, ZNF148 / RFU, TAF9 / Fold change vs veh, TAF9 / RFU, SLC1A5 / Fold change vs veh, SLC1A5 / RFU, SLMO2 / Fold change vs veh, SLMO2 / RFU, ABCC4 / Fold change vs veh, ABCC4 / RFU, LOC101060439 /// RAP1B / Fold change vs veh, LOC101060439 /// RAP1B / RFU, RFX7 / Fold change vs veh, RFX7 / RFU, GTPBP10 / Fold change vs veh, GTPBP10 / RFU, CNEP1R1 / Fold change vs veh, CNEP1R1 / RFU, BIVM-ERCC5 /// ERCC5 / Fold change vs veh, BIVM-ERCC5 /// ERCC5 / RFU, ILF3 / Fold change vs veh, ILF3 / RFU 11762660_at / Fold change /veh 11762660_at / RFU VCAN (11757783_s_at) / Fold change /veh VCAN (11757783_s_at) / RFU DDX43 (11728927_at) / Fold change /veh DDX43 (11728927_at) / RFU KRT8 (11758188_x_at) / Fold change /veh KRT8 (11758188_x_at) / RFU NKD1 (11759106_at) / Fold change /veh NKD1 (11759106_at) / RFU SRD5A1 (11742802_a_at) / Fold change /veh SRD5A1 (11742802_a_at) / RFU TPSAB1 /// TPSB2 (11721975_s_at) / Fold change /veh TPSAB1 /// TPSB2 (11721975_s_at) / RFU GSTM3 (11746129_a_at) / Fold change /veh GSTM3 (11746129_a_at) / RFU IL23R (11737362_x_at) / Fold change /veh IL23R (11737362_x_at) / RFU TMEM51 (11727254_a_at) / Fold change /veh TMEM51 (11727254_a_at) / RFU PIWIL2 (11732686_x_at) / Fold change /veh PIWIL2 (11732686_x_at) / RFU ORM1 (11744905_x_at) / Fold change /veh ORM1 (11744905_x_at) / RFU CCDC152 (11743942_at) / Fold change /veh CCDC152 (11743942_at) / RFU ECM1 (11717891_a_at) / Fold change /veh ECM1 (11717891_a_at) / RFU IL23R (11748794_a_at) / Fold change /veh IL23R (11748794_a_at) / RFU TNFAIP8L3 (11732012_x_at) / Fold change /veh TNFAIP8L3 (11732012_x_at) / RFU MBOAT4 (11741988_at) / Fold change /veh MBOAT4 (11741988_at) / RFU 11764193_at / Fold change /veh 11764193_at / RFU TMEM53 (11763286_at) / Fold change /veh TMEM53 (11763286_at) / RFU MAGEB2 (11727129_at) / Fold change /veh MAGEB2 (11727129_at) / RFU TMEM200A (11744735_a_at) / Fold change /veh TMEM200A (11744735_a_at) / RFU CCDC152 (11751479_a_at) / Fold change /veh CCDC152 (11751479_a_at) / RFU FAM211A (11726209_a_at) / Fold change /veh FAM211A (11726209_a_at) / RFU RGS16 (11746705_a_at) / Fold change /veh RGS16 (11746705_a_at) / RFU VCAN (11755009_s_at) / Fold change /veh VCAN (11755009_s_at) / RFU RHOB (11743442_s_at) / Fold change /veh RHOB (11743442_s_at) / RFU RGS16 (11720943_a_at) / Fold change /veh RGS16 (11720943_a_at) / RFU RGS16 (11720944_at) / Fold change /veh RGS16 (11720944_at) / RFU, VPS4B / Fold change vs veh, VPS4B / RFU, CREB1 / Fold change vs veh, CREB1 / RFU, DNAJC13 / Fold change vs veh, DNAJC13 / RFU, GNAQ / Fold change vs veh, GNAQ / RFU, CDK5R1 / Fold change vs veh, CDK5R1 / RFU, ZRANB3 / Fold change vs veh, ZRANB3 / RFU, CUL4A / Fold change vs veh, CUL4A / RFU, CCNY / Fold change vs veh, CCNY / RFU, UFL1 / Fold change vs veh, UFL1 / RFU, COG3 / Fold change vs veh, COG3 / RFU, DIAPH2 / Fold change vs veh, DIAPH2 / RFU, SKA2 / Fold change vs veh, SKA2 / RFU, AFF3 / Fold change vs veh, AFF3 / RFU, LMF1 / Fold change vs veh, LMF1 / RFU, IPO11 / Fold change vs veh, IPO11 / RFU, DFFB / Fold change vs veh, DFFB / RFU, FOXP1 / Fold change vs veh, FOXP1 / RFU, CARD8 / Fold change vs veh, CARD8 / RFU, STRN3 / Fold change vs veh, STRN3 / RFU, ADK / Fold change vs veh, ADK / RFU, RASSF2 / Fold change vs veh, RASSF2 / RFU, WIPF1 / Fold change vs veh, WIPF1 / RFU, LARP1B / Fold change vs veh, LARP1B / RFU, RASA1 / Fold change vs veh, RASA1 / RFU, RB1 / Fold change vs veh, RB1 / RFU, PPFIA1 / Fold change vs veh, PPFIA1 / RFU, MAT2A / Fold change vs veh, MAT2A / RFU, CCT5 / Fold change vs veh, CCT5 / RFU, WDR92 / Fold change vs veh, WDR92 / RFU, CUX1 / Fold change vs veh, CUX1 / RFU, TTC7A / Fold change vs veh, TTC7A / RFU, TMEM135 / Fold change vs veh, TMEM135 / RFU, DEPTOR / Fold change vs veh, DEPTOR / RFU, CPM / Fold change vs veh, CPM / RFU, DNAJB6 / Fold change vs veh, DNAJB6 / RFU, CACNA2D3 / Fold change vs veh, CACNA2D3 / RFU, DTX4 / Fold change vs veh, DTX4 / RFU, TFCP2 / Fold change vs veh, TFCP2 / RFU, GMCL1 /// GMCL1P1 / Fold change vs veh, GMCL1 /// GMCL1P1 / RFU, AEBP2 / Fold change vs veh, AEBP2 / RFU, SNHG1 /// SNORD22 /// SNORD25 /// SNORD26 /// SNORD27 /// SNORD28 /// SNORD29 /// SNORD31 / Fold change vs veh, SNHG1 /// SNORD22 /// SNORD25 /// SNORD26 /// SNORD27 /// SNORD28 /// SNORD29 /// SNORD31 / Fold change (Aza/veh), C12orf56 (ProbeSet 11735607_a_at) / Fold change (ACY-1035/veh), C12orf56 (ProbeSet 11735607_a_at) / Fold change (Aza/veh), FGFR1OP (ProbeSet 11751329_s_at) / Fold change (ACY-1035/veh), FGFR1OP (ProbeSet 11751329_s_at) / Fold change (Aza/veh), VPS36 (ProbeSet 11739960_a_at) / Fold change (ACY-1035/veh), VPS36 (ProbeSet 11739960_a_at) / RFU SYPL1 (11715823_x_at) / Fold change /veh SYPL1 (11715823_x_at) / RFU IGFBP7 (11715501_s_at) / Fold change /veh IGFBP7 (11715501_s_at) / RFU REEP3 (11722064_at) / Fold change /veh REEP3 (11722064_at) / RFU IGLL1 (11728026_x_at) / Fold change /veh IGLL1 (11728026_x_at): dose or concentration left out as unconfirmed
Conditions: MV-4-11 cells, 48 hours

`Nc1ccc(-c2cccs2)cc1NC(=O)c1ccc2c(c1)cc(C1CC1)n2CCN1CCOCC1` [ACY-1035] was tested, and the “RFU ACY1 (11761880_at)” value was 20.30 RFU.
